From patent US9801373B2, “Compounds for alleviating phosphate starvation symptoms in plants” (Commissariat a l'Energie Atomique et aux Energies …, priority 2012, dated 2017)
Several values for one entry are separate records, joined by “and”; a condition that tells them apart may be missing. Equal values may be shown once. Entries after “also recorded” stand apart in the source; their conditions may differ.

Experiments:
Assay type in all cases: in vivo, Arabidopsis thaliana
[1] = tested on: PHT1;4, PHT1;8, MGD3, PLDz2, SQD2, SPX1; experiment: qPCR of Pi starvation regulated genes in lpr1 mutant; conditions: 14 days-old plants, FIG. 12
Method: (§1) Plant RNA was extracted with the RNeasy kit (QIAGEN, France). For transcriptome data, RNA were analysed by the CATMA technology (Complete Arabidopsis Transcriptome Microarray). For qPCR, poly(dT) cDNA were prepared from 500 ng total RNA with Superscript III reverse transcriptase (Invitrogen, France) and analysed on a LightCycler 480 apparatus (Roche Diagnostics, France) with the SYBR Green I Master kit (Roche Diagnostics, France) according to the manufacturer's instructions. Targets were quantified with specific primer pairs designed with Primer3 website (http://frodo.wi.mit.edu/primer3/) (see Table II below). Biological triplicates were performed for all experiments. Expression levels were normalized using At2g16600, At3g04120, At1g35160 and At1g32050 genes.

[2] = tested on: wild-type (WT) seedlings; experiment: Primary root growth of wild-type seedlings
Method: In the Pi deficient medium, NaCl (0.5 mM) was used to replace the equivalent amount of sodium provided by NaH2PO4. For controls of the effects of the compounds, 1% of DMSO (Dimethyl sulfoxid, SIGMA, 472301), solvent for the tested compounds, was added. After 2 days at 4° C., the plates were placed in a vertical position and plants were grown in a culture chamber under a 16 h light/8 h dark regime (24/21° C., 150 μE m^−2s^−1). For 4 weeks culture, large plates (24×24 cm) were placed in a horizontal position. Root architecture and aerial part area were quantified using program ImageJ.

[3] = tested on: phosphatase activity; experiment: Phosphatase activity on root samples; conditions: 7-days-old plants, −Pi+PTN1 40 μM, FIG. 4
Method: Soluble proteins were extracted with 50 mM TRIS pH 7.4 and 1 mM DTE (1,4-Dithioerythritol, Sigma, 6892-68-8). The protein concentration was determined by the Bradford methods, using albumin from bovine serum (BSA, Sigma, 9048-46-8) as a standard. The phosphatase activity in solution was determined as previously described by Kolari and Sarjala, (1995), by measuring the release of nitrophenol from 0.6 mM p-nitrophenylphosphate in 50 mM sodium acetate pH 5. Reactions were incubated at 30° C. for […] and were stopped with 10% of Na2CO3, after which the absorbance at 405 nm was measured.

[4] = tested on: SQD2, MGD3, PLDz2, SQD1 and MGD2; experiment: qPCR of genes involved in lipid synthesis; conditions: 40 μM, 14 days, FIG. 5 (A)
Method: as §1

[5] = tested on: cycB1::GUS; experiment: Cell cycle marker cycB1::GUS in root tip; conditions: 40 μM, −Pi seedlings, FIG. 7 (B)
Method: The GUS activity was detected as previously described by Jefferson et al. (1987), using a GUS staining solution containing 50 mM sodium phosphate buffer pH 7.0; 0.01% Triton X-100, 1 mM K3Fe(CN)6, 1 mM K4Fe(CN)6, 1 mg/ml 5-bromo-4-chloro-3-indolyl B-D-glucuronide (X-Gluc). For cycB1::GUS staining, plants were incubated 6 hours at 37° C.

[6] = tested on: genes regulated by Pi starvation; experiment: Global transcriptomic analysis (CATMA) of roots
Method: as §1
To investigate on a wider scale the putative Phosphatin1 effect, a transcriptional analysis of the global genome was performed using the CATMA technology (http://www.catma.org/, URGV, France). It was compared transcript expression in roots of 14-days-old plantlets, grown in −Pi, −Pi+PTN1 or +Pi.
Table III: Comparison of PTN1 treatment and phosphate supply on global transcriptomic analysis. For this analysis, 14-days-old WT root samples of plants grown on −Pi, −Pi+PTN1 (40 μM) and +Pi were used. Data are expressed as ratio values between +Pi and −Pi or −Pi+PTN1 and −Pi respectively.

[7] = 14-days-old roots, −Pi+PTN1 40 μM vs −Pi
[8] = gene classes of Thibaud et al. (2010)

With O=c1c(Sc2ccc(Cl)cc2)c(Sc2ccc(Cl)cc2)c1=O [PTN1] the “expression of PHT1;4, PHT1;8, MGD3, PLDz2, SQD2, SPX1 in lpr1” value [1] was “repressed the expression of these genes in lpr1 to a similar level as observed in the WT”, the “primary root growth at various external Pi concentrations (15-250 uM)” value ([2]; 10 uM, 5 days on Pi rich medium then 24 hours on tested conditions, FIG. 7 (D)) was “improved root growth until 50/75 μM of Pi” and the “primary root growth on −Pi” value ([2]; WT, 7-day-old plantlets, FIG. 7 (A)) was “promote the primary root growth in a dose dependent manner”. The concentration of maximum effect on primary root growth and PHT1;4 inhibition ([2]; −Pi) was 40 µM, the phosphatase activity [3] was “not altered; also recorded: did not impact the phosphatase activity” and the “expression of SQD2, MGD3, PLDz2, SQD1 and MGD2” value [4] was “repressed the expression”. For the same compound, the “CycB1 expression in root tip” value [5] was “expressed in the root tip of −Pi seedlings but there were fewer stained cells than in the +Pi control”, the “genes de-regulated in an opposite way compared with +Pi treatment” value ([6]; 40 μM, 14-days-old roots) was “around 4%” and the “number of the 279 genes induced +Pi/−Pi also induced by PTN1” value ([6]; 40 μM, 14-days-old roots) was 115 genes. For the same compound, the “number of the 279 genes induced +Pi/−Pi repressed by PTN1” value ([6]; 40 μM, 14-days-old roots) was 11 genes, the “number of the 783 genes repressed +Pi/−Pi also repressed by PTN1” value ([6]; 40 μM, 14-days-old roots) was 316 genes and the “number of the 783 genes repressed +Pi/−Pi induced by PTN1” value ([6]; 40 μM, 14-days-old roots) was 30 genes. The “percentage of the 279 genes induced +Pi/−Pi also induced by PTN1” value ([6]; 40 μM, 14-days-old roots) was 41% and 41.2%, the “percentage of the 279 genes induced +Pi/−Pi repressed by PTN1” value ([6]; 40 μM, 14-days-old roots) was 3.9% and the “percentage of the 783 genes repressed +Pi/−Pi also repressed by PTN1” value ([6]; 40 μM, 14-days-old roots) was 40% and 40.3%. For the same compound, the “percentage of the 783 genes repressed +Pi/−Pi induced by PTN1” value ([6]; 40 μM, 14-days-old roots) was 3.8%, the “number of genes induced vs −Pi” value [6, 7] was 1001 genes and the “number of genes repressed vs −Pi” value [6, 7] was 1666 genes. For the same compound, the “number of genes modulated vs −Pi” value ([6]; 14-days-old roots, −Pi+PTN1 40 μM vs −Pi, more than two fold change, Bonferroni <0.05) was 2667 genes, the “local genes repressed by Pi also repressed by PTN1” value [6, 8] was 45% and the “systemic genes induced by Pi also regulated by PTN1 in the same direction” value [6, 8] was 55%. The “systemic genes repressed by Pi also regulated by PTN1 in the same direction” value [6, 8] was 65%, the “expression of PHT1;5 and PHT1;8” value ([6]; transcriptomic analysis) was “down regulation” and the “expression of lipid conversion genes including PLDζ2 and MGD3” value ([6]; transcriptomic analysis) was “down regulated”.
